Reference: patent US20260315564A1, “THE USE OF TP3 (THYMOPENTIN ANALOG) BY INCREASING THE ACTIVITY AND NUMBER OF T-CELLS INVOLVED IN THE DEFENSE MECHANISM OF THE IMMUNE SYSTEM OF MAMMALS, FOR THE PREVENTION OR TREATMENT OF DISEASES TO EXTEND THE AVERAGE LIFESPAN” (priority 2023, published 2026)
Marks after values point to notes of the source that are not given here. Residues, ends and D or L forms follow the SMILES beside them.

Key:
[1] = system: Antibody production (immunized with BVVT); experiment: Antibody production (anti-BVVT titer) in Balb/c nu/nu mice; assay type: in vivo; details: ip, n = 10/group, control < 3.0
Method: Rats (Hannover Wistar) were treated (i.p.) within 6-12 hours after birth. Treatments after birth in a single session or in another examination • on the 7th day after the first treatment; • another group was vaccinated 3 times a week after the first day of treatment. • in a subsequent group, the treatments took place over three weeks (9× in total) (10-3,10-5,10-7//10-9, 10-11,10-12,10-13 M/animal, i.p.). • in the fourth test series, the animals were treated with TP fragments at 0, 1, 2, 4, or 5 days of age. The rats were randomly immunized on the 14th day after birth (1% BVVT with 0.5 ml cell suspension, i.p.). Immune responses were measured after 7 days on day 21 of the experiment. 1.2. Determination of anti-BVVT Ab titers (from rat blood samples ex vivo) • with the haemagglutination method (Takátsy and Fürész, 1955) on 96-well plates (Flow). 50 ul of 0.9% NaCl solution was added to each well. The sera (50 μl) were diluted by half dilution in 12 steps, mixed with 25 pμl 2% BVVT cell suspension, and incubated (1 hour at 37 °C). The hemagglutination titers of the sera are determined. Values expressed in logarithmic values refer to total agglutination.
Mice were treated for 4 weeks 3 times a week (every other day) with TP fragments (10-9, 10-8, 10-7//10-3, 10-2, 10-1 M/animal ip. (Veys et al., 1983) at the end of the treatments ([…]), the mice were immunized (with 0.5 ml 1% BVVT suspension ip. The immune response was expressed in antibody titers as above).

PFC = PFC cell count in aged mice; assay type: in vivo, aged mice (Balb/c); details: first value column under head 'PFC IgM/logx^2'; aged mice 18 months old; n = 8/group; young control 6.3, aged 3.7
Method: 1.3./Determination of the number of plaque-forming cells (PFC) (using rat spleen cells) The chopped splenocytes were placed in a culture medium (Parker 199) and then shaken with a shaker for 1 minute. The cells were suctioned from the surface of the rapidly settling tissue debris. Red blood cells were removed osmotically. Cell suspensions were adjusted to 107/ml. The cell suspensions were mixed with a 15% BVVT cell suspension in a ratio of 2:1. PFC was determined with the mixture using a modified chamber technique according to Channingham et al., 1966). Before filling the chamber, 50 μl of fresh diluted guinea pig serum (1:20) was added. The chambers (2-2/slide) were incubated (370C 45′) after sealing with paraffin, the formed plaques were counted under a microscope (at 400× magnification) within 2 hours Marker tests related to the rejection reaction of an adult thymus-depleted mouse skin graft 1.4./Rejection of skin transplants in nude mice after treatment with TP fragments (Snell et al., Transplantation 5, 492, 1967).
TP effect on antibody production and PFC cell count in aged mice (Balb/c)

CC(C)[C@H](NC(=O)[C@H](CC(=O)O)NC(=O)[C@H](CCCCN)NC(=O)[C@@H](N)CCCN=C(N)N)C(=O)N[C@@H](Cc1ccc(O)cc1)C(=O)O [TP5] (H-RKDVY-OH)
antibody production (titer) ([1]; 10^-2 M/mouse (M/eger)): 26.4 **
antibody production (titer) ([1]; 10^-3 M/mouse (M/eger)): 19.8
antibody production (titer) ([1]; 10^-4 M/mouse (M/eger)): 11.9
antibody production (titer) ([1]; 10^-7 M/mouse (M/eger)): 24.6 **
antibody production (titer) ([1]; 10^-8 M/mouse (M/eger)): 19.9 *
antibody production (titer) ([1]; 10^-9 M/mouse (M/eger)): 14.5
PFC (PFC): 6.1*
